pIC50: −log10 of the molar value. The source made the active and inactive calls. The rule behind the calls is not given here.
Legend:
[1] = Cytotoxicity against human L02 cells assessed as inhibition of cell proliferation incubated for 48 hrs by MTT assay; assay type: toxicity, cell-based
MGC-803 = assay: Antiproliferative activity against human MGC-803 cells assessed as inhibition of cell proliferation incubated for 48 hrs by MTT assay; assay type: functional, cell-based; settings: MGC-803, 48 h
[2] = Cytotoxicity against human GES1 cells assessed as inhibition of cell proliferation incubated for 48 hrs by MTT assay; assay type: toxicity, cell-based
MCF7 = assay: Antiproliferative activity against human MCF7 cells assessed as inhibition of cell proliferation incubated for 48 hrs by MTT assay; assay type: functional, cell-based; settings: MCF7, 48 h
BGC-823 [3] = assay: Antiproliferative activity against human BGC-823 cells assessed as inhibition of cell proliferation incubated for 48 hrs by MTT assay; assay type: functional, cell-based; settings: BGC-823, 48 h
HepG2 = assay: Antiproliferative activity against human HepG2 cells assessed as inhibition of cell proliferation incubated for 48 hrs by MTT assay; assay type: functional, cell-based; settings: HepG2, 48 h
SGC-7901 = assay: Antiproliferative activity against human SGC-7901 cells assessed as inhibition of cell proliferation incubated for 48 hrs by MTT assay; assay type: functional, cell-based; settings: SGC-7901, 48 h
[4] = Cytotoxicity against human MCF-10A cells assessed as inhibition of cell proliferation incubated for 48 hrs by MTT assay; assay type: toxicity, cell-based
BGC-823 [5] = assay: Antiproliferative activity against human BGC-823 cells assessed as inhibition of cell proliferation preincubated with H2O2 for 2 hrs followed by compound addition and measured after 48 hrs by MTT assay; assay type: functional, cell-based
NCI-N87 = assay: Antiproliferative activity against human NCI-N87 cells assessed as inhibition of cell proliferation incubated for 48 hrs by MTT assay; assay type: functional, cell-based; settings: NCI-N87, 48 h
[6] = Selectivity index, ratio of IC50 for cytotoxicity against human GES1 cells to IC50 for antiproliferative activity against human BGC-823 cells in presence of H2O2; assay type: toxicity, cell-based; settings: GES1 cells and BGC-823 cells, read-out: Ratio IC50
BGC-823 [7] = assay: Induction of apoptosis in human BGC-823 cells assessed as necrotic cells at 1 uM incubated for 48 hrs by Annexin V-FITC/PI staining based flow cytometric analysis ( Rvb = 1.79 %); assay type: functional
[8] = Acute toxicity in ip dosed ICR mouse assessed as animal death at 2.16 logarithm of dose; assay type: organism-based; settings: in vivo
BGC-823 [9] = assay: Induction of ROS generation in human BGC-823 cells assessed as cells with green fluorescence at 1 uM incubated for 24 hrs by DCFH-DA staining based analysis relative to control; assay type: functional
[10] = Acute toxicity in ip dosed ICR mouse assessed as animal death at 1.57 logarithm of dose; assay type: organism-based; settings: in vivo
[11] = Acute toxicity in ip dosed ICR mouse assessed as mortality rate by measuring ratio at 1.57 logarithm of dose relative to total number of mouse; assay type: organism-based; settings: in vivo
BGC-823 [12] = assay: Induction of apoptosis in human BGC-823 cells assessed as viable cells at 1 uM incubated for 48 hrs by Annexin V-FITC/PI staining based flow cytometric analysis ( Rvb = 90.09 %); assay type: functional; settings: read-out: Activity
[13] = Acute toxicity in ip dosed ICR mouse assessed as lethal dose; assay type: organism-based; settings: in vivo
[14] = Acute toxicity in ip dosed ICR mouse assessed as mortality rate by measuring ratio at 2.04 logarithm of dose relative to total number of mouse; assay type: organism-based; settings: in vivo
BGC-823 [15] = assay: Induction of apoptosis in human BGC-823 cells assessed as late apoptotic cells at 1 uM incubated for 48 hrs by Annexin V-FITC/PI staining based flow cytometric analysis ( Rvb = 5.61 %); assay type: functional
[16] = Acute toxicity in ip dosed ICR mouse assessed as mortality rate by measuring ratio at 1.80 logarithm of dose relative to total number of mouse; assay type: organism-based; settings: in vivo
[17] = Acute toxicity in ip dosed ICR mouse assessed as mortality rate by measuring ratio at 1.91 logarithm of dose relative to total number of mouse; assay type: organism-based; settings: in vivo
BGC-823 [18] = assay: Antitumor activity against human BGC-823 cells xenografted in BALB/c nude mouse assessed as tumor growth inhibition at 5 mg/kg, ip administered for 21 days relative to control; assay type: functional; settings: BGC-823, 504 h, time 21 day, read-out: TGI
BGC-823 [19] = assay: Induction of apoptosis in human BGC-823 cells assessed as early apoptotic cells at 1 uM incubated for 48 hrs by Annexin V-FITC/PI staining based flow cytometric analysis ( Rvb = 1.68 %); assay type: functional
[20] = Acute toxicity in ip dosed ICR mouse assessed as animal death at 2.03 logarithm of dose; assay type: organism-based; settings: in vivo
[21] = Binding affinity to DTT in PBS assessed as UV peak appearance at 288 nm at 360 uM by UV-Vis spectra analysis
[22] = Acute toxicity in ip dosed ICR mouse assessed as mortality rate by measuring ratio at 1.68 logarithm of dose relative to total number of mouse; assay type: organism-based; settings: in vivo
[23] = Acute toxicity in ip dosed ICR mouse assessed as mortality rate by measuring ratio at 2.16 logarithm of dose relative to total number of mouse; assay type: organism-based; settings: in vivo

Row | Structure (SMILES) | IC50 at 48 h [1] [µM] | pIC50 (MGC-803) | IC50 at 48 h [2] [nM] | pIC50 (MCF7) | pIC50 (BGC-823 [3]) | pIC50 (HepG2) | pIC50 (SGC-7901) | IC50 at 48 h [4] [nM] | pIC50 (BGC-823 [5]) | pIC50 (NCI-N87) | selectivity ratio [6] | further results
1 | CC1(C)CC[C@]2(C(=O)OCCCCCOc3ccc(NC(=O)OCc4ccc(B5OC(C)(C)C(C)(C)O5)cc4)cc3)CC[C@]3(C)[C@H](C(=O)C=C4[C@@]5(C)C=C(C#N)C(=O)C(C)(C)[C@@H]5CC[C@]43C)[C@@H]2C1 | 4.9 | 5.57 | 3000 | 5.57 | 5.85 | 5.41 | 5.51 | 5900 | 6.10 | 5.80 | 3.75 | –
2 | COC(=O)[C@]12CCC(C)(C)C[C@H]1[C@H]1C(=O)C=C3[C@@]4(C)C=C(C#N)C(=O)C(C)(C)[C@@H]4CC[C@@]3(C)[C@]1(C)CC2 [BARDOXOLONE METHYL] | 0.4 | 6.05 | 400 | 5.92 | 6.30 | 6.30 | 6.22 | 800 | 6.30 | 6.10 | 1 | Activity (BGC-823 [7]): 7.6%; Activity [8]: Toxic; Activity (BGC-823 [9]): 97.6%; Activity [10]: Non-Toxic; Ratio [11]: 0; viability at 1 µM (BGC-823 [12]): 61.3%; LD50 [13]: 61.7 mg/kg; Ratio [14]: 0.83; Activity (BGC-823 [15]): 24.5%; Ratio [16]: 0.6; Ratio [17]: 0.67; inhibition in vivo at 5 mg/kg (BGC-823 [18]): 51.7%; Activity (BGC-823 [19]): 6.59%; Activity [20]: Toxic; Activity [21]: Active; Ratio [22]: 0.25; Ratio [23]: 1
3 | COc1cc(/C=C/CC(=O)OCCCOC(=O)[C@]23CCC(C)(C)C[C@H]2[C@H]2C(=O)C=C4[C@@]5(C)C=C(C#N)C(=O)C(C)(C)[C@@H]5CC[C@@]4(C)[C@]2(C)CC3)ccc1OCc1ccc(B2OC(C)(C)C(C)(C)O2)cc1 | 5.6 | – | 4200 | 4.54 | 5.64 | 5.26 | – | 2400 | – | – | – | –
4 | CC1(C)CC[C@]2(C(=O)OCCCCCOC(=O)c3ccc(OCc4ccc(B5OC(C)(C)C(C)(C)O5)cc4)cc3)CC[C@]3(C)[C@H](C(=O)C=C4[C@@]5(C)C=C(C#N)C(=O)C(C)(C)[C@@H]5CC[C@]43C)[C@@H]2C1 | 3.5 | – | 2800 | 5.80 | 5.68 | 5.55 | – | 3100 | – | – | – | –

— ChEMBL document CHEMBL5576127, “New CDDO Arylboronate Ester Derivatives with High Selectivity and Low Toxicity” (J Med Chem, 2024)
